Assay results from patent US9005969B2, “Generation of novel bone forming cells (monoosteophils) from LL-37 treated monocytes” (City of Hope, priority 2010, dated 2015).

What was measured:
monocytes [1] = assay: Cytokine multiplex analysis of supernatants of differentiated monocytes; format: cell-based, human; set-up: GM-CSF release / MIP-1α release / MIP-1β release / MIG release / RANTES release / MCP-1 release / IL-2R release / VEGF release / G-CSF release / HGF release / FGF-Basic release / IL-4 release / IL-7 release / IFN-α release / IFN-γ release: unit not given here; details: for FGF-Basic release / G-CSF release / HGF release / IFN-α release / IFN-γ release / IL-2R release / IL-4 release / IL-7 release / MCP-1 release / MIG release / MIP-1α release / MIP-1β release / RANTES release / VEGF release / GM-CSF release: supernatant, monocytes differentiated 6 days, Mean ± SEM
Text: (§1) This study was approved by the Institutional Human Subject's Review Board (City of Hope National Medical Center). Peripheral blood mononuclear cells (PBMCs) were isolated from citrated blood by centrifugation over Ficoll-Paque Plus (GE healthcare biosciences, Pittsburgh, Pa., USA) density gradient. Monocytes were separated using EasySep® Human Monocyte Enrichment Kit (StemCell Technologies Inc, Vancouver, Canada) from PBMCs. The purified monocytes were stained with anti-CD14-FITC and checked by using flow cytometry FACSCanton II. Monocytes with >95% purity were suspended at 1×10^6 cells/mL in RPMI 1640 medium supplement with 10% FBS (FBS contained <5 pg/100 mL LPS).
(§2) After isolation of monocytes as described in the examples above, monocytes were treated with serial dose of LL-37 (0.625 μM, 1.25 μM, 2.5 μM, 5 μM, or 10 μM) for differentiation for 3 days, 6 days, 14 days or more. After incubating for 6 days, cultures were fed every 2 days by removing half of the supernatant and adding fresh medium. For macrophage differentiation, monocytes were treated with medium only (Falzoni et al. 1995), with 100 ng/mL LPS (Palucka et al. 1999), 10 ng/mL GM-CSF (macrophage 1, Mφ1), or 50 ng/mL M-CSF (macrophage 2, Mφ2) for 6 days (Verreck et al. 2004). Monocyte-derived DCs were generated with 1,000 U/mL GM-CSF and 500 units/mL IL-4 (Verreck et al. 2004) or GM-CSF and 1000 U/mL IFNα (Tosello et al. 2009). Osteoclasts were differentiated from monocytes in the presence of RANKL and M-CSF (both at 25 ng/mL) (Sorensen et al. 2007).
Fresh monocytes were plated at 1×10^6 cells/mL in RPMI 1640 medium containing 10% FBS in 48-well plates and incubated with medium only, LL-37, LPS, GM-CSF, M-CSF, M-CSF/RANKL for 6 days, or/and 14 days and 21 days. Supernatant was collected and analyzed using the Human Cytokine 30-Plex antibody bead kit from Biosource International Inc., including IL-1-β, IL-1 ra, IL-2, IL-2R, IL-4, IL-5, IL-6, IL-7, IL-8, IL-10, IL-12, IL-13, IL-15, IL-17, TNFα, IFNα, IFNγ, G-CSF, GM-CSF, MIP-1α, MIP-1β, MIG, RANTES, eotaxin, MCP-1, IP-10, VEGF, HGF, FGF-basic, and […]. Cytokine concentrations were calculated using Bio-Plex Manager 3.0 software with an eight-parameter, curve-fitting algorithm applied for standard curve calculations (Zhang et al. 2008b).

monocytes [2] = details: cited from earlier work
monocytes [3] = assay: Phagocytosis of fluorescent labeled latex beads; format: cell-based, human; details: 6-day differentiated cells, beads 1:500, 1 hour at 37° C.
Method: 6-day LL-37-, medium-, LPS-, GM-CSF-, and M-CSF-differentiated monocytes (1×10^6/mL) in tissue culture medium supplemented with 10% FBS in a 24-well plate were mixed with fluorescent labeled latex beads at a multiplicity ratio of 1:500, and incubated for 1 hour at 37° C. After being washed three times, cells were analyzed using FACSCanton II and Flowjo software.

monocytes [4] = assay: Monocyte differentiation and survival (morphology, cell number); format: cell-based, human
Text: as §1
Negatively isolated monocytes at the concentration of 1×10^6/mL were incubated in […] medium with 10% FBS in the presence or absence of LL-37. […] The maximum effect occurred at the dose of 5 μM LL-37 after which higher doses (≧10 μM) led to decreased cell numbers due to toxicity of LL-37 >10 μM (Zhang et al. 2008a; Johansson et al. 1998). After 14 days, the cell number of untreated controls decreased further, but the LL-37-differentiated monocytes survived with an apparent further increase in the diameter of the round adherent cells. […] There was no evidence of cell-cell fusion in the creation of giant cells. Together these analyses indicate that LL-37 can progressively differentiate monocytes into large round adherent cells at early times with giant cells and irregular shaped cells appearing at later times.
as §2
Monocytes were plated in culture media and treated with LL-37 (dose shown in the figures), LPS (100 ng/mL), GM-CSF (10 ng/mL), M-CSF (50 ng/mL), GM-CSF (1,000 U/mL)/IL-4 (500 units/mL), GM-CSF (1,000 U/mL)/IFNα (1,000 U/mL), or MCSF/RANKL (both at 25 ng/mL) and photographed with the Leica DMI 3000B (Leica Microsystems Inc, Bonnockburn, Ill. 60015) inverted microscope.

monocytes [5] = assay: Bone resorption assay on BioCoat Osteologic Discs (phase contrast, SEM, von Kossa); format: cell-based, human
Method: The resorbing activity was evaluated by using BioCoat™ Osteologic™ Discs purchased from BD Biosciences as a mineral matter in 24-well plate. […] The plates were washed by rinsing distilled water and pit formation was observed by light microscopy (Yuasa et al. 2007) and scanning electron microscopy (SEM). […]
BioCoat™ Osteologic™ Discs fixed in 2.5% glutaraldehyde in 0.1 M phosphate buffer, pH 7.2 (buffer A) for 1 hour from bone resorption assay were washed three times in buffer A, postfixed with 1% osmium tetroxide in buffer A, then dehydrated in graded ethanol. The 100% ethanol solution was then replaced by propylene oxide, and the cells were embedded in Eponate. Thin sections were stained with uranyl acetate and lead citrate and examined with a FEI TECNAI G2 electron microscope.
Discs were photographed using phase contrast microscopy (magnification 200×).

monocytes [6] = assay: Flow cytometry of cell surface markers; format: cell-based, human; details: 6 days
Text: For cell surface staining, cells were washed with PBS, blocked with 10% human serum in PBS, stained with isotype controls and antibodies described in the figures, washed 3 times with 1% BSA PBS, and analyzed with a FACSCanton II. For intracellular staining, cells were washed with PBS, fixed with 1% paraformaldehyde in PBS, permeabilized in PBS buffer containing 0.1% saponin (Sigma-Aldrich) and 2% BSA, and stained with primary isotype controls and antibodies shown in the figures. After washing with PBS containing 1% BSA and 0.1% saponin, cells were stained with secondary Alexa 488 conjugated antibodies. Stained cells were assessed with a FACSCanton II cytometer, and analyzed using Flowjo software.

| Molecule | FGF-Basic release (monocytes [1]) | G-CSF release (monocytes [1]) | HGF release (monocytes [1]) | IFN-α release (monocytes [1]) | IFN-γ release (monocytes [1]) | IL-2R release (monocytes [1]) | IL-4 release (monocytes [1]) | IL-7 release (monocytes [1]) | MCP-1 release (monocytes [1]) | MIG release (monocytes [1]) | MIP-1α release (monocytes [1]) | MIP-1β release (monocytes [1]) | RANTES release (monocytes [1]) | VEGF release (monocytes [1]) | GM-CSF release (monocytes [1]) | further results |
| --- | --- | --- | --- | --- | --- | --- | --- | --- | --- | --- | --- | --- | --- | --- | --- | --- |
| GM-CSF: Recombinant human GM-CSF, produces macrophage 1 (Mφ1) [reference compound] | 10.85 ± 0.22 | 74.85 ± 2.60 | 505.18 ± 118.32 | 14.33 ± 1.27 | 13.5 ± 0.47 | 47.16 ± 1.23 | 11.82 ± 0.98 | 26.89 ± 0.16 | 15362.1 ± 7902.6 | 17.21 ± 1.30 | 72.20 ± 6.18 | 70.42 ± 19.71 | 5.42 ± 1.85 | 15.88 ± 2.99 | – | – |
| LL-37 | 10.28 ± 0.66 | 51.79 ± 3.38 | 772.94 ± 126.71 | 9.93 ± 0.14 | 12.13 ± 0.88 | 32.38 ± 7.04 | 7.16 ± 0.59 | 11.93 ± 1.96 | 7720.3 ± 972.2 | 7.16 ± 1.31 | 53.17 ± 12.97 | 72.41 ± 9.86 | 10.24 ± 3.87 | 3.88 ± 0.41 | 3.96 ± 0.30 | toxicity of LL-37 (monocytes [2]): > 10 µM; phagocytic function (monocytes [3]): retain their phagocytic function; doses that led to decreased cell numbers (monocytes [4]): ≥ 10 µM; cell number versus untreated controls (monocytes [4]; 5 μM, 6 days): significantly higher than untreated controls; cell morphology (monocytes [4]; 6 days of treatment): differentiated into large round adherent cells; survival in terms of cell numbers (monocytes [4]; after 28 days, versus M-CSF/RANKL-derived osteoclasts): survive better than M-CSF/RANKL-derived osteoclasts; dose of maximum effect (monocytes [4]; monocyte differentiation and cell number): 5 µM; structures formed on Osteologic Discs (monocytes [5]; 3 weeks, cells removed by bleach, LL-37 5 μM, M-CSF/RANKL both 25 ng/mL): formed refractile specks on the discs instead of classical absorption pits; von Kossa staining of granules (mineralization) (monocytes [5]; 5 weeks of co-culture): positive von Kossa staining; IL-1ra, IL-10, IL-12, IP-10, GM-CSF production in response to LPS (monocytes [1]; 6-day cells, 100 ng/mL LPS 18 hours, versus M-CSF/RANKL-differentiated monocytes): increased production; IL-1ra release versus other macrophage lineages (monocytes [1]; 6 days): highest levels; IL-1β release versus other macrophage lineages (monocytes [1]; 6 days): lowest level; IL-6 release versus macrophages generated by the other methods (monocytes [1]; 6 days): significantly less; IP-10 release versus macrophages generated by the other methods (monocytes [1]; 6 days): increased; IL-1ra release versus osteoclasts (monocytes [1]; all time points analyzed): higher levels; IL-1β, IL-6, MCP-1 release versus osteoclasts (monocytes [1]; all time points analyzed): lower levels; expression of CD163, DC-SIGN, CD14 versus other macrophage lineages (monocytes [6]): lower levels |
| M-CSF: Recombinant human M-CSF, produces macrophage 2 (Mφ2) (protein, UniProt P09603 33-554, looked up) Macrophage colony-stimulating …: EEVSEYCSHMIGSGHLQSLQRLIDSQMETSCQITFEFVDQEQLKDPVCYLKKAFLLVQDIMEDTMRFRDNTPNAIAIVQLQELSLRLKSCFTKDYEEHDKACVRTFYETPLQLLEKVKNVFNETKNLLDKDWNIFSKNCNNSFAECSSQDVVTKPDCNCLYPKAIPSSDPASVSPHQPLAPSMAPVAGLTWEDSEGTEGSSLLPGEQPLHTVDPGSAKQRPPRSTCQSFEPPETPVVKDSTIGGSPQPRPSVGAFNPGMEDILDSAMGTNWVPEEASGEASEIPVPQGTELSPSRPGGGSMQTEPARPSNFLSASSPLPASAKGQQPADVTGTALPRVGPVRPTGQDWNHTPQKTDHPSALLRDPPEPGSPRISSLRPQGLSNPSTLSAQPQLSRSHSSGSVLPLGELEGRRSTRDRRSPAEPEGGPASEGAARPLPRFNSVPLTDTGHERQSEGSFSPQLQESVFHLLVPSVILVLLAVGGLLFYRWRRRSHQEPQRADSPLEQPEGSPLTQDDRQVELPV | 11.54 ± 0.31 | 75.71 ± 5.78 | 664.33 ± 112.85 | 19.83 ± 1.19 | 14.67 ± 1.06 | 44.62 ± 4.89 | 11.07 ± 0.95 | 24.83 ± 1.68 | 34236.5 ± 1606.8 | 15.39 ± 2.01 | 41.62 ± 2.63 | 47.26 ± 1.46 | 10.19 ± 1.38 | 22.12 ± 1.39 | 25.2 ± 5.51 | – |
